Key:
Type in all cases: binding
[1] = molecular target: T1, DGKA (Diacylglycerol kinase alpha) (Rattus norvegicus, UniProt P51556); assay: SILAC LC-MS ATP acyl phosphate probe competition, recombinant DGK-HEK293T lysates
T1 construct: expressed in transfected cells; host or cells: HEK293T (SILAC HEK293T for LC-MS)
Experimental: All other vectors were gifted to Dr. Kevin Lynch (University of Virginia, School of Medicine) by Dr. Kaoru Goto (Yamagata University, School of Medicine) and Dr. Fumio Sakane (Chiba University) and were kindly shared with us: pcDNA3-FLAG-DGKA (rat), pCMV-Tag2B-FLAG-DGKQ (human), pcDNA3-DGKE-3×Flag (human), and pCMV-SPORT6-HA-DGKZ (human). HEK293T cells were plated at a concentration of 400,000 cells in complete DMEM and grown to 50-60% confluency. A polyethyleneimine (PEI) stock solution was prepared (1 mg/mL, pH 7.4) and filter sterilized. Serum-free DMEM (600 μL) was mixed gently with 2.6 μg DNA and 20 μL of sterile PEI (1 mg/mL, pH 7.4) in a sterile microfuge tube. Mixtures were incubated for 30 min at 25° C. The mixture was then added drop-wise to each 10 cm^2 plate, rocked back and forth to mix, and placed back in the incubator. Cell pellets were harvested after two full days of growth, snap-frozen in liquid N2, and stored at −80° C. until use. Recombinant proteins were produced by transient transfection in SILAC HEK293T cells using the procedure described above, except that cells were plated at a concentration of 1×10^6 cells per 10 cm^2 plate and grown to ˜70% confluency prior to introducing transfection mixture.
Proteomes were diluted to 2 mg/ml in kinase buffer. The light and heavy proteomes (0.5 mg, 250 μL total reaction volume) were pre-treated with vehicle or compound, respectively (5 μL, DMSO (light) or 50× stock in DMSO (heavy)), mixed gently, and incubated at 25° C. for 30 min. […] After incubation, matched light and heavy proteomes were transferred and mixed in a 1:1 ratio in a two-dram vial containing 4:1:3 MeOH/CHCl3/H2O (2 mL MeOH, 500 AL CHCl3, 1.5 mL H2O) for extraction of proteins to remove excess probe, quickly vortexed, and centrifuged at 1,400×g for 3 min to pellet protein. Organic and aqueous layers were removed using a Pasteur pipette, and the protein pellet was transferred to a screw-top tube in 600 μL MeOH. A second extraction was performed by adding CHCl3 (150 μL) and H2O (600 μL) to each sample, vortexed, and centrifuged at 1,400×g for 3 min to pellet protein. Organic and aqueous layers were removed by pipetting. MeOH added to pellet (600 μL) and pellets were re-suspended by sonication (3×1 sec pulse, 20% amplitude) for a final extraction. Samples were then centrifuged at 17,000×g for 5 min to pellet protein and MeOH was removed by pipetting. […] To desalt the samples, each was transferred to a two-dram glass vial, and to the vial 4:1:2 MeOH/CHCl3/H2O (2 mL MeOH, 500 AL CHCl3, 1 mL H2O) was added. The vials were vortexed quickly, spun at 1.400×g for 3 min to pellet protein, and aqueous and organic layers were removed using a Pasteur pipette. The resulting protein pellet was transferred to a screw-top tube in 600 μL MeOH, and then CHCl3 (150 μL) and HO (600 μL) were added to extract protein a second time. The samples were vortexed quickly, centrifuged at 1,400×g to pellet protein, and the aqueous and organic layers were removed by pipetting. Resulting protein pellet was suspended in MeOH (600 μL) via sonication (3×1 sec pulse, 20% amplitude), centrifuged at 17,000×g for 5 min to pellet protein, and MeOH removed by pipetting. Protein pellets were then re-suspended in 25 mM ammonium bicarbonate (500 μL) and digested with 7.5 μg Trypsin/Lys-C(Promega, 15 μL, 0.5 μg/μL) for 3 h at 37° C. Avidin-agarose beads (Thermo Scientific Pierce, 100 AL aliquot per sample) were washed three times by adding 10 mL DPBS, centrifuged at 1,400×g for 1 min, and decanting. This wash step was repeated for a total of 3 times. Digested protein samples were mixed with washed avidin beads (100 μL) and brought to a volume of 5.5 mL with DPBS in a 15 mL conical and rotated for 1 h to enrich samples for the covalent desthiobiotin modification. The beads were washed with 25 mM ammonium bicarbonate (3× with 10 mL, centrifuge at 1,400×g for 3 min, decant) and then H2O (3× with 10 mL, centrifuge at 1,400×g for 3 min, decant).

recombinant DGKα = molecular target: T2, recombinant DGKα (Rattus norvegicus, UniProt P51556); assay: Gel-based ATP acyl phosphate chemical proteomic assay; conditions: compounds 100 μM (ATP 1 mM; RF001 at indicated concentrations), 30 min; probe 10 μM
T2 construct: expressed in transfected cells; host or cells: HEK293T (SILAC HEK293T for LC-MS)
Experimental: Cell pellets were resuspended in kinase buffer (Dulbecco's PBS (DPBS, Hyclone), 20 mM MgCl2, EDTA-free protease inhibitors (Pierce)) and then lysed by sonication (3×1 sec pulse, 20% amplitude). The cell lysates were then subjected to centrifugation (100,000×g, 45 min at 4° C.) to isolate the cytosolic fraction in the supernatant and the membrane fraction as a pellet. The membrane pellet was resuspended in kinase buffer by sonication. […] The only exception was experiments involving DGKE; recombinant DGKE protein was most prominently expressed in the membrane fraction and so this fraction was utilized to study DGKE enzyme (see FIG. 8). Protein concentrations were measured using the Bio-Rad DC protein assay. Samples were stored at −80° C. until use.
Proteome concentration was adjusted to 2 mg/mL in kinase buffer. Proteomes were first pre-treated with compound (0.6 μL, 50× stock in DMSO) mixed with gentle flicking, and incubated for 30 min at 25° C. in a microfuge tube (30 μL reaction volume). […] Reactions were then quenched with 10 AL of 4×SDS-PAGE loading buffer. Protein samples (15 μL) were loaded onto 4-20% TGX Stain-Free Protein Midi Gel and resolved by SDS-PAGE at 150V for 55 min. Proteins were then transferred to a nitrocellulose blot by Bio-Rad Trans-Blot Turbo Transfer System (25V. 10 min) to enhance sensitivity. The nitrocellulose blot was then incubated in blocking solution (30 mL, 3% BSA in TBS-T) for 1 h at 25° C. with gentle shaking. The blot was then transferred immediately to antibody solution (30 mL, 5% BSA in ddH2O with 0.1% Tween20 and 1:3000 Streptavidin DyLight 550) and incubated for 2 h at 25° C. with gentle shaking. The blot was then rinsed 5 times for 5 min in TBS-T. and then transferred into ddH2O. The blot was then imaged by in-blot fluorescence scanning on a ChemiDoc MP Imaging System. Fluorescence intensity signals were normalized to total lane protein using the Bio-rad Stain Free imaging (Posch et al., 2013).
The percentage of enzyme activity remaining was determined by comparing integrated band intensities or luminescence of inhibitor—with DMSO-treated samples for gel-based chemical proteomic or ADP-glo assays, respectively. For both chemical proteomic and ADP-glo methods, nonlinear regression analysis was used to determine the IC50 values from a dose-response curve generated using GraphPad Prism. Data are shown as mean±s.e.m. Determination of significance was performed by one-way ANOVA. All statistical analyses were performed using GraphPad Prism.

[2] = molecular target: T3, hDGKa C1 domain cysteines (Homo sapiens, UniProt P23743); assay: JWB003 labeling competition in vitro
T3 construct: expressed in transfected cells; host or cells: HEK293T
Experimental: • 1. HEK293T cells were harvested in cold PBS. • a. Cells were transferred to Eppendorf tube. • 2. Cells were lysed via tip sonicator. • 3. Cells were fractionated into membrane and soluble fraction. • a. 100,000×G for 45 minutes at 4 degree. • b. Supernatant was separated from cell pellet. • 4. Dilute proteomes to 1 mg/mL in PBS and aliquot appropriate reaction volume (49 μL for probe only; 48 μL for competition+probe) • 5. Cells were treated with 50× inhibitor. • a. Incubated for 1Hr at 37 degree. • 6. Cells were treated with 50× Probe (JWB003). • a. Incubated for 1Hr at 37 degree. • 7. Add 6 μL of master mix to each alkyne probe-labeled sample. • a. 1 μL of 1.25 mM Rh-N3 • b. 1 μL of fresh 50 mM TCEP • c. 3 μL of 1.7 mM TBTA stock • d. 1 μL of 50 mM CuSO4 • 8. Vortex samples. • 9. Incubate at room temperature for 1 hr • 10. Quench with 17 μL of 4×SDS-PAGE loading buffer+βME and vortex tubes. • 11. Analyze 30 μL samples by SDS-PAGE immediately. [B] Labeling HEK293T Cells to Determine Target Proteins of JWB003 in Live Cells (In Situ) • 1. Complete media was removed from HEK293T cells and replaced with serum free media containing JWB003 at the appropriate final concentration • a. Cells were placed in incubator for appropriate time at 37 degree 5% CO2 • 2. Cells were washed • a. 2× warm PBS • b. 2× cold PBS • c. Harvest cells in cold PBS • 3. Cells were transferred to Eppendorf tube • 4. Cells were lysed via tip sonicator • 5. Cells were fractionated into membrane and soluble fraction • a. 100,000×G for 45 minutes at 4 degrees • b. Supernatant was separated from cell pellet. • 6. Dilute proteomes to 1 mg/mL and aliquot appropriate reaction volume (50 μL) • 7. Add 6 μL of master mix to each alkyne probe-labeled sample. • a. 1 μL of 1.25 mM Rh-N3 • b. 1 μL of fresh 50 mM TCEP • c. 3 μL of 1.7 mM TBTA stock • d. 1 μL of 50 mM CuSO4 • 8. Vortex samples. • 9. Incubate at room temperature for 1 hr. • 10. Quench with 17 μL of 4×SDS-PAGE loading buffer+βME and vortex tubes. • 11. Analyze 30 μL samples by SDS-PAGE immediately. [C] […]

T3 sequence (P23743 whole entry, the tested form may be a part): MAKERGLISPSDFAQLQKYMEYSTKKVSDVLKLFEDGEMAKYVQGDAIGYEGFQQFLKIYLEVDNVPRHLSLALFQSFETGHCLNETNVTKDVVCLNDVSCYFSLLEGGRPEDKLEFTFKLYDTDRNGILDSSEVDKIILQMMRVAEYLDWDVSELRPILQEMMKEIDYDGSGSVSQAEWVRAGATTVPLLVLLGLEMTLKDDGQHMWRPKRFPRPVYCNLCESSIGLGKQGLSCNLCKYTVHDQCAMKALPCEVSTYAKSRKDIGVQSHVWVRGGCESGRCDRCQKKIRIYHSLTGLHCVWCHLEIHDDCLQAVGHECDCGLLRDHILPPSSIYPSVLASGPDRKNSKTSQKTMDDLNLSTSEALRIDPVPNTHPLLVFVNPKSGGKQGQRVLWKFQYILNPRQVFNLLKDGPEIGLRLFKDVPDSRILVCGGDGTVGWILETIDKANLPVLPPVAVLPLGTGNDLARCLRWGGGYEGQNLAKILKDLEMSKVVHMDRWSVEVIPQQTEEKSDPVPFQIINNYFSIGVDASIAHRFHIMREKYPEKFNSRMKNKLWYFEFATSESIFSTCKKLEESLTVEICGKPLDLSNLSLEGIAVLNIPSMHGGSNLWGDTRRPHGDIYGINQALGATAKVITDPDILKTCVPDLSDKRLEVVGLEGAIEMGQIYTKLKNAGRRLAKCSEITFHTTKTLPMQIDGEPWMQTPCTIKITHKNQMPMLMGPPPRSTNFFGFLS
T1 sequence (P51556 whole entry): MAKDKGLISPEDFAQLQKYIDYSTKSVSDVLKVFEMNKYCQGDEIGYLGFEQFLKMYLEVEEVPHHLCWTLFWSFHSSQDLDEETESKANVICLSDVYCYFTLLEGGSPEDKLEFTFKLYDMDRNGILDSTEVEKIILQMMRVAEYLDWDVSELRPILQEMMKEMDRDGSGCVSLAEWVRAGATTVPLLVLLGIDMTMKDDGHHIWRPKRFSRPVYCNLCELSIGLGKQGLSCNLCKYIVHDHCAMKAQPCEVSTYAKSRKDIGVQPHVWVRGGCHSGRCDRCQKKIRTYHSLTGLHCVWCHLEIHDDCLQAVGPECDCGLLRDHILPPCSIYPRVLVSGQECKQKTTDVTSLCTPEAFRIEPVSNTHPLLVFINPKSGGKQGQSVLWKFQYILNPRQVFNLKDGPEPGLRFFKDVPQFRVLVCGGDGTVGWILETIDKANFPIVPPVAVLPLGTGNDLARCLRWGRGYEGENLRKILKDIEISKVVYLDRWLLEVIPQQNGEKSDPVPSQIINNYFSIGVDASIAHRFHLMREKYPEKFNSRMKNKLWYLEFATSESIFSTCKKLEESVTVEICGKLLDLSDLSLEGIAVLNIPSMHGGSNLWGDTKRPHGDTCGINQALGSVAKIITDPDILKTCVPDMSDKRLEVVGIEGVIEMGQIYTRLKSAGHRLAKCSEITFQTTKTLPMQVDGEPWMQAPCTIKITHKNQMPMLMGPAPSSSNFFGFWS
T2 sequence (P51556 whole entry): as above

Row | Structure (SMILES) | competition at probe-modified peptides from DAGKc and DAGKa subdomains of DGKα ([1]; ATP 1 mM) | inhibition at 1000 µM ([1]; read-out: inhibition of probe labeling at DGKα C1 site (K237)) | blockade of DGKα ATP probe labeling (recombinant DGKα) | inhibition of JWB003 probe labeling of hDGKa [2]
1 | Nc1ncnc2c1ncn2[C@@H]1O[C@H](COP(=O)(O)OP(=O)(O)OP(=O)(O)O)[C@@H](O)[C@H]1O [ATP, adenosine triphosphate] | ~94% | ~58% | global reductions in fluorescent protein signals | 
2 | CCCCCCCCCCCCCC(=O)O[C@@H]1[C@@H](C)[C@@]2(O)[C@@H](C=C(CO)C[C@]3(O)C(=O)C(C)=C[C@@H]23)[C@@H]2C(C)(C)[C@]12OC(C)=O [PMA] |  |  |  | Probe labeling is inhibited
3 | NC(=O)CI [iodoacetamide] |  |  |  | labeling is inhibited
